Experimental findings from PubChem BioAssay AID1259407 (Chemical Carcinogenesis Research Information System (CCRIS), 2018) are described below.

Active and inactive are the calls of the source. The rule behind the calls is not given here.

The test system of the data set is CCRIS mutagenicity, Ames/micronucleus/aberration tests. In words: CCRIS mutagenicity studies.
[1] abbreviates: Test System: AMES SALMONELLA TYPHIMURIUM, Strain/Indicator: TA98, Metabolic Activation: NONE, Method: STANDARD PLATE.
[2] abbreviates: Test System: AMES SALMONELLA TYPHIMURIUM, Strain/Indicator: TA98, Metabolic Activation: RAT, LIVER, S-9, AROCLOR 1254, Method: STANDARD PLATE.
Setting [3] is: Test System: AMES SALMONELLA TYPHIMURIUM, Strain/Indicator: TA100, Metabolic Activation: NONE, Method: STANDARD PLATE.
Setting [4] is: Test System: AMES SALMONELLA TYPHIMURIUM, Strain/Indicator: TA100, Metabolic Activation: RAT, LIVER, S-9, AROCLOR 1254, Method: STANDARD PLATE.
The mark [5] stands for this setting: Test System: AMES SALMONELLA TYPHIMURIUM, Strain/Indicator: TA1538, Metabolic Activation: NONE, Method: STANDARD PLATE.
The mark [6] stands for this setting: Test System: AMES SALMONELLA TYPHIMURIUM, Strain/Indicator: TA1538, Metabolic Activation: RAT, LIVER, S-9, AROCLOR 1254, Method: STANDARD PLATE.

`CC(=O)Nc1ccc2cccnc2c1`: the mutagenic call is “inactive; negative” (Test System: AMES SALMONELLA TYPHIMURIUM, Strain/Indicator: TA98, Metabolic Activation: NONE, Method: PREINCUBATION); “active; positive” (Test System: AMES SALMONELLA TYPHIMURIUM, Strain/Indicator: TA98, Metabolic Activation: RAT, LIVER, S-9, KANECHLOR 500, Method: PREINCUBATION); “inactive; negative” (Test System: AMES SALMONELLA TYPHIMURIUM, Strain/Indicator: TA100, Metabolic Activation: NONE, Method: PREINCUBATION); “active; positive” (Test System: AMES SALMONELLA TYPHIMURIUM, Strain/Indicator: TA100, Metabolic Activation: RAT, LIVER, S-9, KANECHLOR 500, Method: PREINCUBATION).

As to `Cc1cc(N)c(C)c([N+](=O)[O-])c1N`, the mutagenic call under setting [1] was “inactive; negative”; the mutagenic call under setting [2] was “active; positive”; the mutagenic call under setting [3] was “inactive; negative”; the mutagenic call under setting [4] is “inactive; negative”; the mutagenic call (Test System: AMES SALMONELLA TYPHIMURIUM, Strain/Indicator: TA1535, Metabolic Activation: NONE, Method: STANDARD PLATE) was “inactive; negative”; the mutagenic call (Test System: AMES SALMONELLA TYPHIMURIUM, Strain/Indicator: TA1535, Metabolic Activation: RAT, LIVER, S-9, AROCLOR 1254, Method: STANDARD PLATE) is “inactive; negative”. For the same compound, the mutagenic call was “inactive; negative” (Test System: AMES SALMONELLA TYPHIMURIUM, Strain/Indicator: TA1537, Metabolic Activation: NONE, Method: STANDARD PLATE); “inactive; negative” (Test System: AMES SALMONELLA TYPHIMURIUM, Strain/Indicator: TA1537, Metabolic Activation: RAT, LIVER, S-9, AROCLOR 1254, Method: STANDARD PLATE); “inactive; negative” under setting [5]; “active; positive” under setting [6].

For the compound `CC1(C)O[C@@H]1COc1c2occc2cc2ccc(=O)oc12`, the mutagenic call (Test System: AMES SALMONELLA TYPHIMURIUM, Strain/Indicator: TA92, Metabolic Activation: NONE, Method: SPOT TEST) is “inactive; negative”; the mutagenic call (Test System: AMES SALMONELLA TYPHIMURIUM, Strain/Indicator: TA92, Metabolic Activation: RAT, LIVER, S-9, AROCLOR 1254, Method: SPOT TEST) was “inactive; negative”; the mutagenic call (Test System: AMES SALMONELLA TYPHIMURIUM, Strain/Indicator: TA94, Metabolic Activation: NONE, Method: SPOT TEST) was “inactive; negative”; the mutagenic call (Test System: AMES SALMONELLA TYPHIMURIUM, Strain/Indicator: TA94, Metabolic Activation: RAT, LIVER, S-9, AROCLOR 1254, Method: SPOT TEST) was “inactive; negative”; the mutagenic call (Test System: AMES SALMONELLA TYPHIMURIUM, Strain/Indicator: TA97, Metabolic Activation: NONE, Method: SPOT TEST) is “inactive; negative”; the mutagenic call (Test System: AMES SALMONELLA TYPHIMURIUM, Strain/Indicator: TA97, Metabolic Activation: RAT, LIVER, S-9, AROCLOR 1254, Method: SPOT TEST) is “inactive; negative”. In addition, the mutagenic call reads like this: (Test System: AMES SALMONELLA TYPHIMURIUM, Strain/Indicator: TA98, Metabolic Activation: NONE, Method: SPOT TEST) “inactive; negative”; (Test System: AMES SALMONELLA TYPHIMURIUM, Strain/Indicator: TA98, Metabolic Activation: RAT, LIVER, S-9, AROCLOR 1254, Method: SPOT TEST) “inactive; negative”; (Test System: AMES SALMONELLA TYPHIMURIUM, Strain/Indicator: TA100, Metabolic Activation: NONE, Method: SPOT TEST) “inactive; negative”; (Test System: AMES SALMONELLA TYPHIMURIUM, Strain/Indicator: TA100, Metabolic Activation: RAT, LIVER, S-9, AROCLOR 1254, Method: SPOT TEST) “inactive; negative”; (Test System: AMES SALMONELLA TYPHIMURIUM, Strain/Indicator: TA102, Metabolic Activation: NONE, Method: SPOT TEST) “inactive; negative”; (Test System: AMES SALMONELLA TYPHIMURIUM, Strain/Indicator: TA102, Metabolic Activation: RAT, LIVER, S-9, AROCLOR 1254, Method: SPOT TEST) “inactive; negative”.

For `OCc1ccc(F)cc1`, the mutagenic call under setting [3] was “inactive; negative”.

`CCCN(CC(C)O)N=O` (stereo unspecified): the mutagenic call (Test System: CHINESE HAMSTER V-79, Strain/Indicator: V-79/OUABAIN, Metabolic Activation: HAMSTER, HEPATOCYTES, Method: CELL-MEDIATED) was “active; positive”.

As for `N#CCCC(Br)(C#N)CBr` (stereo unspecified), the mutagenic call by setting is: (End Point: In vivo micronucleus, Test System: Peripheral blood normochromatic erythrocytes, Species: Mouse, Strain/Sex: B6C3F1/Female, Route: Dermal) “inactive; negative”; (End Point: In vivo micronucleus, Test System: Peripheral blood normochromatic erythrocytes, Species: Mouse, Strain/Sex: B6C3F1/Male, Route: Dermal) “inactive; negative”; (Test System: Ames Salmonella typhimurium, Strain/Indicator: TA97, Metabolic Activation: Hamster, Liver, S-9, Aroclor 1254 (10 and 30%), Method: Preincubation) “inactive; negative”; (Test System: Ames Salmonella typhimurium, Strain/Indicator: TA97, Metabolic Activation: None, Method: Preincubation) “inactive; negative”; (Test System: Ames Salmonella typhimurium, Strain/Indicator: TA97, Metabolic Activation: Rat, Liver, S-9, Aroclor 1254 (10 and 30%), Method: Preincubation) “inactive; negative”; (Test System: Ames Salmonella typhimurium, Strain/Indicator: TA98, Metabolic Activation: Hamster, Liver, S-9, Aroclor 1254 (10 and 30%), Method: Preincubation) “inactive; negative”. Further, the mutagenic call runs as follows: (Test System: Ames Salmonella typhimurium, Strain/Indicator: TA98, Metabolic Activation: None, Method: Preincubation) “inactive; negative”; (Test System: Ames Salmonella typhimurium, Strain/Indicator: TA98, Metabolic Activation: Rat, Liver, S-9, Aroclor 1254 (10 and 30%), Method: Preincubation) “inactive; negative”; (Test System: Ames Salmonella typhimurium, Strain/Indicator: TA100, Metabolic Activation: Hamster, Liver, S-9, Aroclor 1254 (10 and 30%), Method: Preincubation) “inactive; negative”; (Test System: Ames Salmonella typhimurium, Strain/Indicator: TA100, Metabolic Activation: None, Method: Preincubation) “inactive; negative”; (Test System: Ames Salmonella typhimurium, Strain/Indicator: TA100, Metabolic Activation: Rat, Liver, S-9, Aroclor 1254 (10 and 30%), Method: Preincubation) “inactive; negative”; (Test System: Ames Salmonella typhimurium, Strain/Indicator: TA1535, Metabolic Activation: Hamster, Liver, S-9, Aroclor 1254 (10 and 30%), Method: Preincubation) “inactive; negative”. Also, the mutagenic call runs as follows: (Test System: Ames Salmonella typhimurium, Strain/Indicator: TA1535, Metabolic Activation: None, Method: Preincubation) “inactive; negative”; (Test System: Ames Salmonella typhimurium, Strain/Indicator: TA1535, Metabolic Activation: Rat, Liver, S-9, Aroclor 1254 (10 and 30%), Method: Preincubation) “inactive; negative”; (Test System: E. coli, Strain/Indicator: WP2 uvrA/pKM101, Metabolic Activation: None, Method: Preincubation) “inactive; negative”; (Test System: E. coli, Strain/Indicator: WP2 uvrA/pKM101, Metabolic Activation: Rat, Liver, S-9, Aroclor 1254 (10%), Method: Preincubation) “inactive; negative”.

On to `CC(=O)N(O)c1ccc([N+](=O)[O-])cc1`, for which the mutagenic call runs as follows: (Test System: AMES SALMONELLA TYPHIMURIUM, Strain/Indicator: TA98(NR), Metabolic Activation: NONE, Method: STANDARD PLATE) “inactive; negative”; (Test System: AMES SALMONELLA TYPHIMURIUM, Strain/Indicator: TA98(NR), Metabolic Activation: RAT, LIVER, S-9, AROCLOR 1254, Method: STANDARD PLATE) “inactive; negative”; under setting [1], “active; positive”; under setting [2], “active; positive”; (Test System: AMES SALMONELLA TYPHIMURIUM, Strain/Indicator: TA1538(NR), Metabolic Activation: NONE, Method: STANDARD PLATE) “inactive; negative”; (Test System: AMES SALMONELLA TYPHIMURIUM, Strain/Indicator: TA1538(NR), Metabolic Activation: RAT, LIVER, S-9, AROCLOR 1254, Method: STANDARD PLATE) “inactive; negative”. The mutagenic call under setting [5] was “active; positive” and the mutagenic call under setting [6] was “active; positive”.

On to `Fc1ccc2c3c(cccc13)-c1cc3ccccc3cc1-2`, for which, under setting [4], the mutagenic call was “active; positive”.

Regarding `Cc1c(N)nc(C(CC(N)=O)NCC(N)C(N)=O)nc1C(=O)NC(C(=O)NC(C)C(O)C(C)C(=O)NC(C(=O)NCCc1nc(-c2nc(C(=O)NCCc3cnc[nH]3)cs2)cs1)C(C)O)C(OC1OC(CO)C(O)C(O)C1OC1OC(CO)C(O)C(OC(N)=O)C1O)c1cnc[nH]1` (stereo unspecified), under “Test System: AMES SALMONELLA TYPHIMURIUM, Strain/Indicator: TA102, Metabolic Activation: NONE, Method: PREINCUBATION”, the mutagenic call is “active; positive”.

Consider `CCOC(=O)CNC(=O)C(C)(C)Br`, for which the mutagenic call is, setting by setting: (Test System: AMES SALMONELLA TYPHIMURIUM, Strain/Indicator: TA100, Metabolic Activation: MOUSE, LIVER, S-9, AROCLOR 1254, Method: STANDARD PLATE) “inactive; negative”; under setting [3], “inactive; negative”.
